Laboratory results reported in US20060040390A1, “Device, method, system, and program for intelligent in vivo cell-level chemical or genetic material delivery” (priority 2004, published 2006).

What was measured:
[1] = system: mouse fibroblasts stably transfected with IGF-R; details: 72 h
KB-V cells = assay: cells
B104 cells [2] = system: B104 cells
Protocol: The B104 cells are a rat neuroblastoma line that expresses p75 receptors (p75^+). The 4-3.6 cells are B104 cells stably transfected with human TrkA cDNA (p75^+, TrkA^+).
Therefore, tested is whether a single bolus of paclitaxel is an effective cytotoxic agent. Cells ae exposed to the indicated concentration of paclitaxel for 30 minutes at 4° C. Then, cells are plated in a 96-well plate (Falcon); this group represents treatment with paclitaxel present in a constant manner. The remaining cells are washed free of excess paclitaxel prior to plating; this group represents a single exposure to paclitaxel. […] Optical density readings of MTT are done in an EIA Plate Reader model 2550 (Bio-Rad) at 595 nm.
Paclitaxel is lipophilic and readily penetrates the cell membrane. […] Tested is whether a single short term exposure to paclitaxel can be effective in killing neuroblastoma B104 cells. These assays are done at 4°
The mAbs purpose is purely for target binding.

[3] = system: cells that do not express p75; assay: Selectivity of paclitaxel-MC192 on cells that do not express p75; type: cell-based
[4] = system: neuroblastoma (B104 cells) xenografted in nude mice; assay: In vivo tumor study, B104 neuroblastoma xenografted in nude mice
Description: Nude mice (seven weeks old, female) are used to test the effect of paclitaxel in tumor progression. […] Tumor growth is monitored daily. Mice are then randomized and treatments are initiated. […] Measurements of tumor volume are taken using calipers, every day post treatment for a total of 25 days.

B104 cells [5] = assay: In vitro survival assay with caspase inhibitor, B104 cells that do not express TrkA; type: cell-based, rat; details: B104 cells (no TrkA), serum free media
Protocol: (§1) 4-3.6 cells are placed in serum free media (SFM, PFHM-II, GIBCO, Toronto), where they undergo apoptosis (serum-withdrawal model).
Cells are then cultured for ~48 hrs. Cell growth/survival is calculated relative to 5% serum (standardized to 100%). Addition of serum protects cells in SFM from death.
Cell survival is measured by quantitative tetrazolium salt reagent (MTT, Sigma) and optical density (OD) readings as described [Maliartchouk, 1997]. n=3-6.
Testing 4-3.6 Cell Survival (MTT, % of serum control). Serum free media 0.+−. 4 5%. Serum 100.+−. 2 20 nM zVAD−2.+−. 3 VAD-5C3 conjugate (20 nM VAD equivalent, 1 nM 41.+−. 1 5C3). […] Typicaly, […] mAb 5C3 alone (unconjugated) does protect 4-3.6 cells in SFM to ~10%, which is a much lower degree of protection than equimolar doses of the VAD-5C3 conjugate.

4-3.6 cells = assay: In vitro survival assay with caspase inhibitor, serum-withdrawal model, 4-3.6 cells; type: cell-based, rat; details: ~48 hrs
Description: as §1

COc1cccc2c1C(=O)c1c(O)c3c(c(O)c1C2=O)C[C@@](O)(C(=O)CO)C[C@@H]3O[C@H]1C[C@H](N)[C@H](O)[C@H](C)O1 [Doxorubicin]
cytotoxicity with or without excess antibody [1]: the same cytotoxicity whether excess of mig or α-IR3 is present or not | cytotoxicity on multidrug resistant KB-V cells compared to sensitive KB cells (KB-V cells): inactive on KB-V cells unless Verapamil was added | IC50 (KB-V cells; Homo sapiens, KBV, 72 h, read-out: IC50 ± SEM): > 320 nM

CC(=O)O[C@H]1C(=O)[C@@]2(C)[C@H]([C@H](OC(=O)c3ccccc3)[C@]3(O)C[C@H](OC(=O)[C@H](O)[C@@H](NC(=O)c4ccccc4)c4ccccc4)C(C)=C1C3(C)C)[C@]1(OC(C)=O)CO[C@@H]1C[C@@H]2O [paclitaxel]
cytotoxic effect, single exposure versus constant presence (B104 cells [2]): generally the same whether the drug is present in the culture throughout or after a single exposure | cytotoxicity, constant versus single dose (B104 cells [2]; rat, 48 h): the same after 48 hours whether a constant or a single dose is given | cytotoxicity on cells that do not express p75 [3]: dose-dependent cytotoxicity | antitumor activity, tumor growth ([4]; nude mice, five IP injections every two days, versus control (HBSS)): not able to do so | efficacy of free drug at the conjugate's effective dose ([4]; ~3.5 nM): not effective at this dose

benzoic acid-Valine-Alanine-Aspartic acid-O-methyl-fluoromethyl-Iketone peptide [zVAD]
protection of B104 cells from death (B104 cells [5]): Neither 20 nM zVAD nor VAD-5c3 conjugate afford protection | protection of cells in SFM (4-3.6 cells): does not protect cells
